Source: US10934274B2, “Quinoline derivatives as TAM RTK inhibitors” (Qurient Co., Ltd., priority 2015, dated 2021)

Tests used:
[1] = test system: HCC827/ER cells; test: WST-1 cell viability assay in erlotinib-resistant cells; conditions: compound combined with Erlotinib at constant 1:1 ratio, 3 days, FBS 1%
Experimental: The killed cells were discarded and the remaining cells were cultured in a drug-free medium up to 80% confluence. Subsequently, cells were continuously exposed to increasing drug doses of up to 10 μM over a period of 8 months.
HCC827/ER cells were seeded in a 96-well plate with their respective media containing 10% FBS at 5000 cells/well. After seeding, the HCC827/ER cells were incubated for approximately 24 hours. […] The viability of the HCC827/ER cells was determined by adding WST-1 reagent according to Manufacturer's instructions (DoGenbio co., Ltd) and incubating for four hours. The plates were then read using an absorbance of 440 nm on Tecan Microplate reader (Infinite M200 pro, TECAN). The HCC827/ER cells' viability were calculated relative to vehicle (DMSO) control wells.

[2] = molecular target: T1, Met (Homo sapiens, UniProt P08581); test: LanthaScreen Eu kinase binding assay, Met; conditions: Tracer 236, read-out: cMet kinase binding activity (Kd)
T1 construct: purchased Life Technologies
T1 sequence (P08581 25-1390): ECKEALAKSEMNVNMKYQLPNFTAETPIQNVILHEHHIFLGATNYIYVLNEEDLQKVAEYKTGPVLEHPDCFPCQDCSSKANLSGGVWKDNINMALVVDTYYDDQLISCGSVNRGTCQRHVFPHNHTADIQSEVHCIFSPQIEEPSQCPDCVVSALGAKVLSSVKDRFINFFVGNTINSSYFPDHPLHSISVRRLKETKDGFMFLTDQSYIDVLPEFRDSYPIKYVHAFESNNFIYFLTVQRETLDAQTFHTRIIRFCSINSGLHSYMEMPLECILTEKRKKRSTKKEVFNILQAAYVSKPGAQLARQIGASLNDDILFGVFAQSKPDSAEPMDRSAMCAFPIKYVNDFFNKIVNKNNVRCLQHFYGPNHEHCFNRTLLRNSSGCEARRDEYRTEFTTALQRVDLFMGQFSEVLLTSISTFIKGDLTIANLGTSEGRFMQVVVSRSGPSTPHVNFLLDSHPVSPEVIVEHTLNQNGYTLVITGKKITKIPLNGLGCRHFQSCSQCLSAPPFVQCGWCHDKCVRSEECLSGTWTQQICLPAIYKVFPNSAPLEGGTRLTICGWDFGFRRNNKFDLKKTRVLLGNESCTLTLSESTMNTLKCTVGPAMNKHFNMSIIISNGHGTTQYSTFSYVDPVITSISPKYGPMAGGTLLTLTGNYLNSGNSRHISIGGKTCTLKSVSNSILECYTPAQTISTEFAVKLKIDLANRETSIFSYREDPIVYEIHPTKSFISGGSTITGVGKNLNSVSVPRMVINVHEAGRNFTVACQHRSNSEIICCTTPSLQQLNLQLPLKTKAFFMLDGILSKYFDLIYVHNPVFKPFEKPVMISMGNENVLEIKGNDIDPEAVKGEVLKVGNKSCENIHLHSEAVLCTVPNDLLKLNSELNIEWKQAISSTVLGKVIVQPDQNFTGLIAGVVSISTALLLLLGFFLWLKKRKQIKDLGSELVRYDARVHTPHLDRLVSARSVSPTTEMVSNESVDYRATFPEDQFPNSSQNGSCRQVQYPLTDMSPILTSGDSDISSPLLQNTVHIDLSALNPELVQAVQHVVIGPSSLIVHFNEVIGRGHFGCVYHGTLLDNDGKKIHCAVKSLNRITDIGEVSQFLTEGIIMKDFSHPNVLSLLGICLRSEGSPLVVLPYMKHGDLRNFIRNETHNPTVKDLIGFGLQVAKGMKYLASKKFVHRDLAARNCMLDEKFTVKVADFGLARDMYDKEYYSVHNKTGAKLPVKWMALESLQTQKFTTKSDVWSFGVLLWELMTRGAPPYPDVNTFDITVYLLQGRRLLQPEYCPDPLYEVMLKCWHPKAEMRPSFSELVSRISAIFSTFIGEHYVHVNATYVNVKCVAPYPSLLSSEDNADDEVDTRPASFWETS

[3] = molecular target: T2, Mer (Homo sapiens, UniProt Q12866); test: LanthaScreen Eu kinase binding assay, Mer; conditions: Tracer 236
T2 construct: purchased Life Technologies
T2 sequence (Q12866 21-999): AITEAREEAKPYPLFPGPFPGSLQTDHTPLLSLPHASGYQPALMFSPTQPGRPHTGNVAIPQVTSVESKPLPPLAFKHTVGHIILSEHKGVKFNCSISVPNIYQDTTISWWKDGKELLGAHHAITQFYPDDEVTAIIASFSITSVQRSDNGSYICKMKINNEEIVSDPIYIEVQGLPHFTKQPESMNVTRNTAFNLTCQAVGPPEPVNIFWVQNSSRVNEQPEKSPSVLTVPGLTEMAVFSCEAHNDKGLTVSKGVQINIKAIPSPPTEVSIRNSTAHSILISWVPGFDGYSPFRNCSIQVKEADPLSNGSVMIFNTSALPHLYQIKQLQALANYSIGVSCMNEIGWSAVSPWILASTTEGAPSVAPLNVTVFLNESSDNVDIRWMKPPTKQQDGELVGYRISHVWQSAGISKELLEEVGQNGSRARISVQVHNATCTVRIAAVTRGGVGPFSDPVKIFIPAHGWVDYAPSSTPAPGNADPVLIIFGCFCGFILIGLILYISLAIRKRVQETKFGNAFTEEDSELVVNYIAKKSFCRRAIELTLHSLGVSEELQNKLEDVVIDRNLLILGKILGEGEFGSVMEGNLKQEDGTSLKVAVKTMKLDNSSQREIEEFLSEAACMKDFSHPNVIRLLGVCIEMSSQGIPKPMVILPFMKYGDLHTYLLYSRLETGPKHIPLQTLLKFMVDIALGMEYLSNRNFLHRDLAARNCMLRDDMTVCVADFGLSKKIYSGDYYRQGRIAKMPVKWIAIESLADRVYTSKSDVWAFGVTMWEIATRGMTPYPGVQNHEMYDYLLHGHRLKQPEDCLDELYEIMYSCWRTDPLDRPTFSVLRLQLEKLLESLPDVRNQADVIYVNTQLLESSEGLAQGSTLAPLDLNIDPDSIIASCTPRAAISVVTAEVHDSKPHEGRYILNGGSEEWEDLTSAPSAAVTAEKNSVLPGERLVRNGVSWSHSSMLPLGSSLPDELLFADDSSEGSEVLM

[4] = test system: Axl phosphorylation in transiently transfected HEK293T cells; test: Cellular Axl phosphorylation assay; assay type: cell-based; conditions: Homo sapiens, HEK-293T; HEK293T cells transfected with Axl, 1 hour compound treatment, Phospho-Axl vs Total-Axl
How it was run: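 HEK293T cells transiently transfected with Axl (empty pcDNA_DEST_40 vector as minimum control) were treated with compound in DMSO for 1 h, then lysed. Total and phospho-Axl in lysates were measured by Mesoscale electrochemiluminescence immunoassay. IC50 was taken relative to the DMSO vehicle and empty-vector controls.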

Row | Kd [2] [nM] | Kd [3] [nM] | SMILES | Combination effect of compound and erlotinib on inhibition activity in Erlotinib-resistant cell-line [1] | IC50 [4] [nM]
1 | < 100 | < 100 | CCOc1cn(-c2c(C)ccnc2C)nc1C(=O)Nc1ccc(Oc2ccnc3cc(OC)c(OC)cc23)cn1 [Compound 132] | synergistic effect | < 100
2 | < 100 | < 100 | CCOc1cn(-c2cncnc2C)nc1C(=O)Nc1ccc(Oc2ccnc3cc(OC)c(OC)cc23)cn1 [Compound 149] | synergistic effect | < 100
3 | < 100 | < 100 | CCOc1cn(-c2cnccc2CO)nc1C(=O)Nc1ccc(Oc2ccnc3cc(OC)c(OC)cc23)c(F)c1 [Compound 207] | – | < 100
4 | < 100 | < 100 | CCOc1cn(-c2cccnc2)nc1C(=O)Nc1ccc(Oc2ccnc3cc(OC(C)C)c(OC)cc23)cn1 [Compound 208] | – | < 100
5 | < 100 | < 100 | CCOc1cn(-c2cnccc2CO)nc1C(=O)Nc1ccc(Oc2ccnc3cc(OC)c(OC)cc23)cc1F [Compound 209] | – | < 100
6 | < 100 | < 100 | CCOc1cn(-c2cnccc2C)nc1C(=O)Nc1ccc(Oc2ccnc3cc(OC)c(OC)cc23)nn1 [Compound 210] | – | < 100
7 | 100 to 1000 | 100 to 1000 | CCOc1cn(C2CCCN(C)C2)nc1C(=O)Nc1ccc(Oc2ccnc3cc(OC)c(OC)cc23)cc1F (centres unmarked) [Compound 211] | – | < 100
